Assay results from ChEMBL document CHEMBL5226326, “Discovery of 1-Benzoyl 4-Phenoxypiperidines as Small-Molecule Inhibitors of the β-Catenin/B-Cell Lymphoma 9 Protein-Protein Interaction” (J Med Chem, 2021).

Molecular target: T1, beta-catenin-B-cell lymphoma 9 protein complex (Homo sapiens, UniProt P35222)
T1 sequence (P35222 whole entry): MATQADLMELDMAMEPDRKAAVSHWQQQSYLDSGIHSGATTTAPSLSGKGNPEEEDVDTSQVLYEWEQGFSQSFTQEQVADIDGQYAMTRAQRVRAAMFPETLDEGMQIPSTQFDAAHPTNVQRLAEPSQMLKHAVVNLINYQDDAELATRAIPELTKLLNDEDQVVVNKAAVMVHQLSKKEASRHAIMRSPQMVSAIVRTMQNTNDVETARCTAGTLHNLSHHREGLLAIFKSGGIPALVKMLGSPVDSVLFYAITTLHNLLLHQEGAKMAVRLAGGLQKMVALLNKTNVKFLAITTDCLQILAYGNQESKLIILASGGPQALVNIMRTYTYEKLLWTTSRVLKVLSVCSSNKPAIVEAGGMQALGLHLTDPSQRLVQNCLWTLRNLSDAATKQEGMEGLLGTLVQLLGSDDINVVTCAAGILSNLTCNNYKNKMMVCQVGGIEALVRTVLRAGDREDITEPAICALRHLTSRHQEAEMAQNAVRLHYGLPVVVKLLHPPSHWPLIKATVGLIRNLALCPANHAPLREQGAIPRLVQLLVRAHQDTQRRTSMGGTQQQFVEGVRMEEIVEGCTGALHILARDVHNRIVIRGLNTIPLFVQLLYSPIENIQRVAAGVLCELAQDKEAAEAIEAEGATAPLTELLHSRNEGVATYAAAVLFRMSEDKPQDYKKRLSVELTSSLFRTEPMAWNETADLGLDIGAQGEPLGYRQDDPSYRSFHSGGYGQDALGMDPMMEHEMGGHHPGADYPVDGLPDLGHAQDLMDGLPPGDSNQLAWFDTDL
T1 sequence (O00512 whole entry): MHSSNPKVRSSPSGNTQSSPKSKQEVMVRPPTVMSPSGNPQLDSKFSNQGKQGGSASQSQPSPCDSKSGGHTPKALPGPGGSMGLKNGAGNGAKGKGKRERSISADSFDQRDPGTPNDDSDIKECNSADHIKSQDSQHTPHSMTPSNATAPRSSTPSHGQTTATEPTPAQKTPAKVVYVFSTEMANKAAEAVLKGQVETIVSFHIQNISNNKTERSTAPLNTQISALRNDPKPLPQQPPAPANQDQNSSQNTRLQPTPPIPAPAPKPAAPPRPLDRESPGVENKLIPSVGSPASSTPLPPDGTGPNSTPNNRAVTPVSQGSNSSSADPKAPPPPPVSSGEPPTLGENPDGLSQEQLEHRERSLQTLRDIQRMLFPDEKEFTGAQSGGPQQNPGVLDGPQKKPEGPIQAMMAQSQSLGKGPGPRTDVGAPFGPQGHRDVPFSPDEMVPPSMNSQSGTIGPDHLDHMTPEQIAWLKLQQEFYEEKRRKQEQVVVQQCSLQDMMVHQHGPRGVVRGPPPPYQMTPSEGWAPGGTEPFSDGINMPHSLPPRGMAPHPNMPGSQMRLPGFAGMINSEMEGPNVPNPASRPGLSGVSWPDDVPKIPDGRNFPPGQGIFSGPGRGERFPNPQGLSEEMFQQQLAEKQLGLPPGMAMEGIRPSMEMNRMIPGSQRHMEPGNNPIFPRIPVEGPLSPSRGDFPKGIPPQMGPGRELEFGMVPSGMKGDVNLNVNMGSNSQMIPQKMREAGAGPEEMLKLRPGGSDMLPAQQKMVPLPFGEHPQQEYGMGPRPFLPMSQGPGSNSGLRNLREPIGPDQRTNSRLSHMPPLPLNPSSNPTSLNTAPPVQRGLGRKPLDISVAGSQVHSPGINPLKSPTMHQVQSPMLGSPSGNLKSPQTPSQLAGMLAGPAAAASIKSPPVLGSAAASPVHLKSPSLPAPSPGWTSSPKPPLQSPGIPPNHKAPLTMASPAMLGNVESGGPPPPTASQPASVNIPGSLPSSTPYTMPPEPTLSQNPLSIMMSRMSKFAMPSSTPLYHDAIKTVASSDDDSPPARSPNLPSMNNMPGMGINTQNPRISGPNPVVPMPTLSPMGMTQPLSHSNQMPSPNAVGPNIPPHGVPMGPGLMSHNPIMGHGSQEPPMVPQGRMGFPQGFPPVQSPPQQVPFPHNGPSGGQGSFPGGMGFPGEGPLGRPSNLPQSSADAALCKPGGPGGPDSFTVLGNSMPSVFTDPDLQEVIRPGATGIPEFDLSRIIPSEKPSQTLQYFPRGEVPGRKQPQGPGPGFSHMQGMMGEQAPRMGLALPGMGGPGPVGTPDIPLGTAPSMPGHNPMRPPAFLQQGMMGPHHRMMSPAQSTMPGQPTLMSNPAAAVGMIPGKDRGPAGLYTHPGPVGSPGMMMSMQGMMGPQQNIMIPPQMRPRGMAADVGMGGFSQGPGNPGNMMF
Experiment: Inhibition of full length beta-catenin (1 to 781 residues) (unknown origin) expressed in Escherichia coli BL21 (DE3)/N-terminal biotinylated human BCL9 HD2 (350 to 375 residues) protein-protein interaction incubated for 1 hr by Alphascreen assay

Question: With `CC(C)(C)C1CCC(c2cc(C(=O)N3CCC(Oc4cc(N5CCNCC5)ccc4C#N)CC3)ccc2O[C@H]2CCNC2)CC1.Cl.Cl` (mixture of isomers; cis) as the molecule, how does the IC50 read?
Answer: The IC50 was 1.2 µM.
